Source: US20250236878A1 (priority 2019, published 2025)

System: field mustard (Brassica rapa) seedlings
Assay: Root hair and lateral root elongation in liquid-culture grown field mustard seedlings (Example 13)
Settings: for Experiment A: Average Root Hair Length Per Plant (mm) / Experiment A: Average Root Hair Length Per Plant, % of UTC / Experiment B: Average Length of Three Longest Lateral Roots Per Plant (mm) / Experiment B: Average Length of Three Longest Lateral Roots Per Plant, % of UTC: field mustard seedlings, peptide 10 μM; for Experiment A: Average Root Hair Length Per Plant (mm) / Experiment B: Average Length of Three Longest Lateral Roots Per Plant (mm): about three days; for Experiment A: Average Root Hair Length Per Plant (mm): UTC = 0.137; for Experiment B: Average Length of Three Longest Lateral Roots Per Plant (mm): UTC = 0.632
[1] = liquid culture, approximately three days

For GGIRASPTGNER [SEQ ID NO: 755], the “average lateral root length compared to untreated control” value [1] was “Increased” and the “average root hair length compared to untreated control” value [1] was “increased”.
In the case of “GGIRATPTENER (Glycine max) [SEQ ID NO: 607]”, the “average lateral root length compared to untreated control” value [1] was “Increased” and the “average root hair length compared to untreated control” value [1] was “increased”.
In the case of GGIRDAPTGNER [SEQ ID NO: 752], the “average lateral root length compared to untreated control” value [1] was “Increased” and the “average root hair length compared to untreated control” value [1] was “increased”.
GGIRRAPTGNER [SEQ ID NO: 751] was tested, and the “average lateral root length compared to untreated control” value [1] was “Increased” and the “average root hair length compared to untreated control” value [1] was “increased”.
“GGIRRARTGNE (listed as Vigna radiata) [SEQ ID NO: 750]” was tested, and the “Experiment A: Average Root Hair Length Per Plant (mm)” value (liquid culture) was 0.147 mm, the “Experiment A: Average Root Hair Length Per Plant, % of UTC” value was “(107% of UTC)” and the “average lateral root length compared to untreated control” value [1] was “Increased”. The “average root hair length compared to untreated control” value [1] was “increased”.
With “GGIRTAITGNE (listed as Vigna angularis) [SEQ ID NO: 748]” the “Experiment A: Average Root Hair Length Per Plant (mm)” value (liquid culture) was 0.151 mm, the “Experiment B: Average Length of Three Longest Lateral Roots Per Plant (mm)” value (liquid culture) was 0.929 mm and the “Experiment A: Average Root Hair Length Per Plant, % of UTC” value was “(110% of UTC)”. For the same sequence, the “Experiment B: Average Length of Three Longest Lateral Roots Per Plant, % of UTC” value was “(147% of UTC)”, the “average lateral root length compared to untreated control” value [1] was “Increased” and the “average root hair length compared to untreated control” value [1] was “increased”.
For “GGIRVAATGKER (Glycine max) [SEQ ID NO: 608]”, the “average lateral root length compared to untreated control” value [1] was “Increased” and the “average root hair length compared to untreated control” value [1] was “increased”.
“GGISASPTGN (listed as Lactuca sativa) [SEQ ID NO: 749]” was tested, and the “Experiment A: Average Root Hair Length Per Plant (mm)” value (liquid culture) was 0.182 mm, the “Experiment B: Average Length of Three Longest Lateral Roots Per Plant (mm)” value (liquid culture) was 1.058 mm and the “Experiment A: Average Root Hair Length Per Plant, % of UTC” value was “(132% of UTC)”. For the same sequence, the “Experiment B: Average Length of Three Longest Lateral Roots Per Plant, % of UTC” value was “(168% of UTC)”, the “average lateral root length compared to untreated control” value [1] was “Increased” and the “average root hair length compared to untreated control” value [1] was “increased”. The “increases in average lateral root length relative to control” value [1] was “+68%” and the “increases in root hair length relative to control” value [1] was “+32%”.
In the case of “GIRDAPAGNE (listed as Macleaya cordata) [SEQ ID NO: 746]”, the “Experiment A: Average Root Hair Length Per Plant (mm)” value (liquid culture) was 0.165 mm, the “Experiment B: Average Length of Three Longest Lateral Roots Per Plant (mm)” value (liquid culture) was 0.822 mm and the “Experiment A: Average Root Hair Length Per Plant, % of UTC” value was “(120% of UTC)”. The “Experiment B: Average Length of Three Longest Lateral Roots Per Plant, % of UTC” value was “(130% of UTC)”, the “average lateral root length compared to untreated control” value [1] was “Increased” and the “average root hair length compared to untreated control” value [1] was “increased”.
